Measurements published in patent publication US9115145B2, “Tocotrienol derivatives and associated methods” (FIRST TECH INTERNATIONAL LIMITED, priority 2011, dated 2015).
Read-outs that look alike come from different tables or passages of the source.

Columns and labels:
[1] = system: leukemia and colon cancer cell lines; assay: NCI screening at several concentrations (GI50, TGI, LC50); assay type: cell-based, human
Procedure: The human tumor cell lines of the cancer screening panel were grown in RPMI 1640 medium containing 5% fetal bovine serum and 2 mM L-glutamine. For a typical screening experiment, cells are inoculated into 96 well microtiter plates in 100 μL at plating densities ranging from 5000 to 40,000 cells/well depending on the doubling time of individual cell lines. After cell inoculation, the microtiter plates are incubated at 37° C., 5% CO2, 95% air and 100% relative humidity for 24 hours prior to addition of experimental drugs. After 24 hours, two plates of each cell line are fixed in situ with Trichloroacetic acid (“TCA”), to represent a measurement of the cell population for each cell line at the time of drug addition. Experimental drugs are solubilized in dimethyl sulfoxide at 400-fold the desired final maximum test concentration and stored frozen prior to use. At the time of drug addition, an aliquot of frozen concentrate is thawed and diluted to twice the desired final maximum test concentration with complete medium containing 50 ng/mL gentamicin. An aliquot of 100 μL of this drug dilution is added to the appropriate microtiter wells already containing 100 μL of medium, resulting in the required final drug concentrations. Following drug addition, the plates are incubated for an additional 48 h at 37° C., 5% CO2, 95% air, and 100% relative humidity. For adherent cells, the assay is terminated by the addition of cold TCA. Cells are fixed in situ by the gentle addition of 50 μL of cold 50% (w/v) TCA (final concentration, 10% TCA) and incubated for 60 min at 4° C. The supernatant is discarded, and the plates are washed five times with tap water and air dried. Sulforhodamine B (SRB) solution (100 μL) at 0.4% (w/v) in 1% acetic acid is added to each well, and plates are incubated for 10 min at room temperature. After staining, unbound dye is removed by washing five times with 1% acetic acid and the plates are air dried. Bound stain is subsequently solubilized with 10 mM trizma base, and the absorbance is read on an automated plate reader at a wavelength of 515 nm. For suspension cells, the methodology is the same except that the assay is terminated by fixing settled cells at the bottom of the wells by gently adding 50 μL of 80% TCA (final concentration, 16% TCA). FIGS. 37-74 indicate the growth inhibition effects of selected Compounds against a variety of cell lines based on the above described testing configuration. FIGS. 37-74 present the Growth percent for a given compound against the cell lines and both values and a bar chart of the difference between the mean growth percent and the growth percent which is an indication of the selectivity of the compound for that particular cell line. […]

[2] = system: MDA-MB-231 human breast cancer cell line; assay: MTT assay of MDA-MB-231 cells; assay type: cell-based; conditions: Homo sapiens, media containing 5% fetal bovine serum
Procedure: (§1) MDA-MB-231 and MCF7 cells were plated at a density of 8×10^3 cells/well and 10^4 cells/well in 96-well culture plates, respectively. The compounds were fed in serum free media containing 5% and 1% fetal bovine serum for MDA-MB-231 and MCF7 cells, respectively.

[3] = system: MCF 10A non-tumorigenic mammary epithelial cells; assay: MTT assay of MCF10A cells; assay type: cell-based, human; conditions: for IC50: Homo sapiens; for Selectivity index: IC50 for MCF 10A divided by IC50 for +SA cell line
Outline: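 MCF 10A non-tumorigenic human mammary epithelial cells were seeded at 10×10^4 cells/well and treated with compounds in serum-free medium, final DMSO below 0.1%. Viability was read by MTT, and IC50 came from non-linear regression. Selectivity index = MCF 10A IC50 ÷ +SA cell line IC50.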

[4] = system: 60 human tumor cell lines; assay: NCI in vitro screening against 60 human cell lines, single concentration; assay type: cell-based; conditions: 10 μM dose; negative values indicate cytotoxicity
Procedure: Compounds selected from Compounds 3-44 were provided to the National Cancer Institute for in vitro screening against 60-human cell lines for their ability to inhibit the growth of tumor cells in a full panel representing nine different organs (blood, lung, colon, CNS, skin, ovary, kidney, prostate, and breast). The compounds were tested at a single concentration of 10 μM, and the percentages of growth inhibitions over the sixty tested cell lines were determined. Compounds showing the highest activity were chosen for secondary assays using five different compound concentrations.
The human tumor cell lines of the cancer screening panel were grown in RPMI 1640 medium containing 5% fetal bovine serum and 2 mM L-glutamine. For a typical screening experiment, cells are inoculated into 96 well microtiter plates in 100 μL at plating densities ranging from 5000 to 40,000 cells/well depending on the doubling time of individual cell lines. After cell inoculation, the microtiter plates are incubated at 37° C., 5% CO2, 95% air and 100% relative humidity for 24 hours prior to addition of experimental drugs. After 24 hours, two plates of each cell line are fixed in situ with Trichloroacetic acid (“TCA”), to represent a measurement of the cell population for each cell line at the time of drug addition. Experimental drugs are solubilized in dimethyl sulfoxide at 400-fold the desired final maximum test concentration and stored frozen prior to use. At the time of drug addition, an aliquot of frozen concentrate is thawed and diluted to twice the desired final maximum test concentration with complete medium containing 50 ng/mL gentamicin. An aliquot of 100 μL of this drug dilution is added to the appropriate microtiter wells already containing 100 μL of medium, resulting in the required final drug concentrations. Following drug addition, the plates are incubated for an additional 48 h at 37° C., 5% CO2, 95% air, and 100% relative humidity. For adherent cells, the assay is terminated by the addition of cold TCA. Cells are fixed in situ by the gentle addition of 50 μL of cold 50% (w/v) TCA (final concentration, 10% TCA) and incubated for 60 min at 4° C. The supernatant is discarded, and the plates are washed five times with tap water and air dried. Sulforhodamine B (SRB) solution (100 μL) at 0.4% (w/v) in 1% acetic acid is added to each well, and plates are incubated for 10 min at room temperature. After staining, unbound dye is removed by washing five times with 1% acetic acid and the plates are air dried. Bound stain is subsequently solubilized with 10 mM trizma base, and the absorbance is read on an automated plate reader at a wavelength of 515 nm. For suspension cells, the methodology is the same except that the assay is terminated by fixing settled cells at the bottom of the wells by gently adding 50 μL of 80% TCA (final concentration, 16% TCA). FIGS. 37-74 indicate the growth inhibition effects of selected Compounds against a variety of cell lines based on the above described testing configuration. FIGS. 37-74 present the Growth percent for a given compound against the cell lines and both values and a bar chart of the difference between the mean growth percent and the growth percent which is an indication of the selectivity of the compound for that particular cell line.

[5] = system: MDA-MB-231 human breast cancer cells; assay: Wound-healing assay (cell migration); assay type: cell-based; conditions: Homo sapiens; MDA-MB-231, wound-healing assay, dose response; read-out: IC50 antimigratory activity
Outline: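 Scratch wounds made in confluent (>95%) monolayers, then compounds added in fresh medium (5 μM in screening; concentration range in follow-up), DMSO as negative control, triplicate. After 24 h serum-starved at 37 °C, cells fixed and Diff-Quick stained. Migrated cells counted per 400× field (≥3 fields); IC50 from concentration range.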

[6] = system: MCF7 human breast cancer cell line; assay: MTT assay of MCF7 cells; assay type: cell-based; conditions: Homo sapiens, media containing 1% fetal bovine serum
Procedure: as §1

[7] = system: +SA mammary epithelial cells; assay: MTT assay of +SA cells (antiproliferative activity); assay type: cell-based, mouse; conditions: described from FIG. 32 / text
Procedure: The antiproliferative activities of Compounds 3-44 against the highly metastatic malignant +SA mammary epithelial cells were evaluated by MTT assay. Materials for the assay were purchased from Sigma Chemical Company (St. Louis, Mo.) unless otherwise stated. The highly malignant +SA mouse mammary epithelial cell line was serially passaged at subconfluent cell density. The +SA mammary tumor cell line was derived from an adenocarcinoma that developed spontaneously in a BALB/c female mouse. +SA cells were maintained in serum-free defined medium consisting of Dulbecco's modified Eagle's medium (DMEM)/F12 containing 5 mg/mL bovine serum albumin (BSA), 10 […], 100 U/mL soybean trypsin inhibitor, 100 U/mL penicillin G, 0.1 mg/mL streptomycin, […], and 10 ng/mL epidermal growth factor. For subculturing, cells were rinsed twice with sterile Ca2+ and Mg2+-free phosphate buffered saline (PBS) and incubated in 0.05% trypsin containing 0.025% EDTA in PBS for 5 min at 37° C. The released cells were centrifuged, resuspended in fresh media and counted using hemocytometer. A stock solution of the compounds was prepared in DMSO. Once dissolved, this solution was added to a small volume of sterile 10% BSA in water and incubated overnight at 37° C. This solution conjugated to BSA was used to prepare various concentrations (0-40 μM) of tocotrienol analogs. DMSO was added to all treatment media such that the final DMSO concentration was the same in all treatment groups within a given experiment and was always less than 0.1%. For cytotoxic studies, cells were seeded at a density of 5×10^4 cells/well (+SA cells) or 1×10^5 cells/well (CL-S1 cells) (6 wells/group) in 24-well culture plates and allowed to grow in their respective control media. After 3 days incubation period (approximately 70% confluency), cells were divided equally into various treatment groups and exposed to their respective treatments for a 24 hours incubation period. Following the 24 hours treatment period, cell viability was measured using the MTT assay.
+SA Mammary epithelial cell viable number was determined by a 3-(4,5-dimethylthiazol-2yl)-2,5-diphenyl tetrazolium bromide (MTT) colorimetric assay. On the assay day, treatment medium was replaced with fresh control medium containing 0.42 mg/mL MTT, and the cells in 24-well plates were incubated at 37° C. for 4 hours. Afterward, the medium was removed, and the MTT crystals were dissolved in isopropyl alcohol (1 mL/well). The optical density of each sample was read at 570 nm on a microplate reader (SpectraCount, Packard BioScience Company), against a blank prepared from cell-free cultures. The number of cells/well was calculated against a standard curve prepared by plating various concentrations of cells, as determined by hemocytometer, at the start of each experiment.
Differences among the various treatment groups in +SA cell cytotoxic studies were determined by analysis of variance (ANOVA) followed by Dunnett's t-test. The difference of P<0.05 was considered to be statistically significant as compared with vehicle-treated controls unless separately described. Linear regression analysis of treatment effects on viable cell number in growth and cytotoxicity studies was used to determine the 50% growth inhibition concentration (IC50) for individual treatments.

[8] = MCF-10A, MCF10A cells, Table II, non-linear regression, read-out: MCF10A (IC50)
[9] = MCF 10A non-tumorigenic cells, Table I, read-out: IC50 MCF 10A

Row | SMILES | GI50 [1] | IC50 [2] [µM] | IC50 [3, 8] [µM] | IC50 [3, 9] [µM] | Selectivity index [3] | mean percent growth across all 60 cell lines (mean 60) [4] | IC50 [5] [µM] | IC50 [6] [µM] | antiproliferative activity against +SA mammary tumor cells (in words) [7]
1 | CC(C)=CCC/C(C)=C/CC/C(C)=C/CC[C@]1(C)CCc2c3c(cc(C)c2O1)OCN(C1CCN(Cc2ccccc2)CC1)C3 [Compound 8, (R)-2-(1-benzylpiperidin-4-yl)-6,8-dimethyl-8-((3E,7E)-4,8,12-trimethyltrideca-3,7,11-trienyl)-1,2,3,8,9,10-hexahydrochromeno[5,6-e][1,3]oxazine] | nanomolar | – | – | – | – | – | – | – | –
2 | CC(C)=CCC/C(C)=C/CC/C(C)=C/CC[C@]1(C)CCc2c3c(cc(C)c2O1)OCN(CCCCCCCCO)C3 [Compound 40, 8-((R)-6,8-dimethyl-8-((3E,7E)-4,8,12-trimethyltrideca-3,7,11-trienyl)-9,10-dihydrochromeno[5,6-e][1,3]oxazin-2(1H,3H,8H)-yl)octan-1-ol] | nanomolar | 11.7 | 1.7 | 1.7 | 2.15 | negative | 4.9 | > 20 | –
3 | CC(C)=CCC/C(C)=C/CC/C(C)=C/CC[C@]1(C)CCc2c3c(c(C)c(C)c2O1)OCN(CCCCCO)C3 [Compound 17, 5-((R)-5,6,8-trimethyl-8-((3E,7E)-4,8,12-trimethyltrideca-3,7,11-trienyl)-9,10-dihydrochromeno[5,6-e][1,3]oxazin-2(1H,3H,8H)-yl)pentan-1-ol] | nanomolar | > 50 | 8.9 | 8.9 | 5.24 | – | – | > 20 | very high activities
4 | CC(C)=CCC/C(C)=C/CC/C(C)=C/CC[C@]1(C)CCc2c3c(cc(C)c2O1)OCN(CCCCCCO)C3 [Compound 38, 6-((R)-6,8-dimethyl-8-((3E,7E)-4,8,12-trimethyltrideca-3,7,11-trienyl)-9,10-dihydrochromeno[5,6-e][1,3]oxazin-2(1H,3H,8H)-yl)hexan-1-ol] | nanomolar | > 5 | 2.5 | 2.5 | 1.92 | negative | 1.5 | > 20 | –
